Laboratory results reported in the supplement of paper PMC8960247.
± gives the standard error.

Tests used:
621-102 (TSC2-deficient) [1] = test: relative viability vs DMSO (fraction); higher = less cytotoxic; conditions: serum: 0.1% FBS, 72 h
UMB1949 (TSC2-deficient) = test: as above; conditions: serum: 0.1% FBS, 72 h;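 note: renal angiomyolipoma cell lines screened in 384-well plates, viability normalized per plate to DMSO-treated cells, each plate carrying 50 nM rapamycin and 1 µM staurosporine controls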
621-102 (TSC2-deficient) [2] = test: relative viability vs DMSO; higher = less cytotoxic; conditions: serum: 10% FBS, 72 h
621-103 (TSC2-rescued) = test: as above; conditions: serum: 10% FBS, 72 h

Row | Structure (SMILES) | relative viability (621-102 (TSC2-deficient) [1]; 0.0128 nM) | relative viability (621-102 (TSC2-deficient) [1]; 0.064 nM) | relative viability (621-102 (TSC2-deficient) [1]; 0.32 nM) | relative viability (621-102 (TSC2-deficient) [1]; 1.6 nM) | relative viability (621-102 (TSC2-deficient) [1]; 8 nM) | relative viability (621-102 (TSC2-deficient) [1]; 40 nM) | relative viability (621-102 (TSC2-deficient) [1]; 200 nM) | relative viability (621-102 (TSC2-deficient) [1]; 1000 nM) | relative viability (621-102 (TSC2-deficient) [1]; 5000 nM) | relative viability (UMB1949 (TSC2-deficient); 0.0128 nM) | relative viability (UMB1949 (TSC2-deficient); 0.064 nM) | relative viability (UMB1949 (TSC2-deficient); 0.32 nM) | relative viability (UMB1949 (TSC2-deficient); 1.6 nM) | relative viability (UMB1949 (TSC2-deficient); 8 nM) | relative viability (UMB1949 (TSC2-deficient); 40 nM) | relative viability (UMB1949 (TSC2-deficient); 200 nM) | relative viability (UMB1949 (TSC2-deficient); 1000 nM) | relative viability (UMB1949 (TSC2-deficient); 5000 nM) | relative viability (621-102 (TSC2-deficient) [2]; 0.0001 µM) | relative viability (621-102 (TSC2-deficient) [2]; 0.001 µM) | relative viability (621-102 (TSC2-deficient) [2]; 0.01 µM) | relative viability (621-102 (TSC2-deficient) [2]; 0.1 µM) | relative viability (621-102 (TSC2-deficient) [2]; 1 µM) | relative viability (621-102 (TSC2-deficient) [2]; 10 µM) | relative viability (621-103 (TSC2-rescued); 0.0001 µM) | relative viability (621-103 (TSC2-rescued); 0.001 µM) | relative viability (621-103 (TSC2-rescued); 0.01 µM) | relative viability (621-103 (TSC2-rescued); 0.1 µM) | relative viability (621-103 (TSC2-rescued); 1 µM) | relative viability (621-103 (TSC2-rescued); 10 µM)
1 | O=C1Nc2ccccc2/C1=C1/Nc2ccccc2C1=O [Indirubin] | 1.08 | 0.927 | 1.06 | 0.906 | 0.922 | 0.996 | 0.841 | 0.652 | 0.833 | 0.983 | 1.03 | 1.02 | 0.972 | 0.941 | 0.964 | 0.87 | 0.811 | 0.749 | 97.2 ± 1.8% | 92.9 ± 2% | 91.53 ± 0.38% | 87.8 ± 2.7% | 92.2 ± 1.6% | 89.5 ± 2.1% | 86.1 ± 1.6% | 82.2 ± 3.9% | 83.7 ± 2.7% | 81.9 ± 4% | 79.1 ± 3.3% | 64 ± 2.4%
2 | O=C(Cc1ccc(-c2ccc(OCCN3CCOCC3)cc2)cn1)NCc1ccccc1 [KX2-391] | 1.18 | 0.965 | 1.06 | 0.813 | 0.205 | 0.0932 | 0.069 | 0.0401 | 0.0343 | 1.23 | 1.1 | 1.12 | 1.01 | 0.0594 | 0.00501 | 0.00135 | 0.00316 | 0.00418 | 90.4 ± 1.4% | 98.1 ± 14% | 70 ± 2.2% | 47.7 ± 0.7% | 35.2 ± 2.1% | 37.3 ± 0.46% | 101 ± 3.5% | 96.4 ± 5.7% | 58.7 ± 3.5% | 50.8 ± 1% | 33.05 ± 0.28% | 34.1 ± 1.5%
3 | O=C(/C=C/c1ccc(CN(CCO)CCc2c[nH]c3ccccc23)cc1)NO [LAQ824] | 1.04 | 0.934 | 0.921 | 0.89 | 0.628 | 0.173 | 0.0545 | 0.00134 | 0.000846 | 1.01 | 0.942 | 0.887 | 0.67 | 0.0147 | 0.00199 | 0.000488 | 0.000621 | 0.000364 | 92.2 ± 3.3% | 87.2 ± 0.88% | 83.3 ± 3.2% | 54.8 ± 0.8% | 31.7 ± 1.1% | 16.2 ± 0.46% | 94.4 ± 1.2% | 94.1 ± 1.4% | 67.9 ± 1.9% | 21.1 ± 0.62% | 2.61 ± 0.065% | 1.459 ± 0.0077%
4 | CC(C)C[C@H](NC(=O)CNC(=O)c1cc(Cl)ccc1Cl)B(O)O [MLN2238] | 1.04 | 1.1 | 0.991 | 1.15 | 0.999 | 0.243 | 0.0069 | 0.000706 | 0.00111 | 0.999 | 1.11 | 1.04 | 1.06 | 0.886 | 0.00829 | 0.00329 | 0.000634 | 0.000752 | 113.5 ± 0.41% | 107.81 ± 0.071% | 109 ± 2.2% | 33.7 ± 7.2% | 4.42 ± 0.32% | 1.79 ± 0.047% | 100.04 ± 0.065% | 102.4 ± 0.21% | 103 ± 0.3% | 6.24 ± 0.3% | 1.63 ± 0.11% | 0.879 ± 0.059%
